According to patent publication EP1976513B1 (priority 2006, dated 2007):
Where two headings read alike, the source gives them in different places.

Key:
[1] = target: human serotonin reuptake transporter (Homo sapiens, UniProt P31645); assay: cell-based
[2] = target: T1, human dopamine reuptake transporter (Homo sapiens, UniProt Q01959); assay: cell-based
T1 construct: expressed in transfected cells; host or cells: CHO-K1 or HEK293

[3] = recombinant human dopamine transporter (DAT), read-out: Human IC50 (nM) hDAT
[4] = recombinant human serotonin transporter (SERT), read-out: Human IC50 (nM) hSERT
[5] = Human IC50 (nM) hSERT, recombinant human serotonin transporter (SERT)
[6] = read-out: Human IC50 (nM) hSERT

T1 sequence (Q01959 whole entry): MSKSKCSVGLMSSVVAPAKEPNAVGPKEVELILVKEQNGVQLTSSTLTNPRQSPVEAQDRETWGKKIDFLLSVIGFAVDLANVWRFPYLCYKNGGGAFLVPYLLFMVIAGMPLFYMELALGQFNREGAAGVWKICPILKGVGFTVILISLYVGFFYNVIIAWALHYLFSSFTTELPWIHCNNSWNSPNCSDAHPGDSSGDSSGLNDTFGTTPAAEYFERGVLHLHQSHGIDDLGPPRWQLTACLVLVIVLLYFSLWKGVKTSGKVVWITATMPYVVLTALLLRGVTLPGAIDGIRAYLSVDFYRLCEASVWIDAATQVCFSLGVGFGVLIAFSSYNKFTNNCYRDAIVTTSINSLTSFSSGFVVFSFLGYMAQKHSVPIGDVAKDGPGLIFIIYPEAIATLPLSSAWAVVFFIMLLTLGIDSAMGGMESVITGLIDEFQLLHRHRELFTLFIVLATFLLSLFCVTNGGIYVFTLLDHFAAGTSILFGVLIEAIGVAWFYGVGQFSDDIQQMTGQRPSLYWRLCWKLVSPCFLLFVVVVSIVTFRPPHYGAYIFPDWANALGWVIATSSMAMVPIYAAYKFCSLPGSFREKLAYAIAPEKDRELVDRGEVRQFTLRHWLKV
Chain of human serotonin reuptake transporter (P31645 whole entry): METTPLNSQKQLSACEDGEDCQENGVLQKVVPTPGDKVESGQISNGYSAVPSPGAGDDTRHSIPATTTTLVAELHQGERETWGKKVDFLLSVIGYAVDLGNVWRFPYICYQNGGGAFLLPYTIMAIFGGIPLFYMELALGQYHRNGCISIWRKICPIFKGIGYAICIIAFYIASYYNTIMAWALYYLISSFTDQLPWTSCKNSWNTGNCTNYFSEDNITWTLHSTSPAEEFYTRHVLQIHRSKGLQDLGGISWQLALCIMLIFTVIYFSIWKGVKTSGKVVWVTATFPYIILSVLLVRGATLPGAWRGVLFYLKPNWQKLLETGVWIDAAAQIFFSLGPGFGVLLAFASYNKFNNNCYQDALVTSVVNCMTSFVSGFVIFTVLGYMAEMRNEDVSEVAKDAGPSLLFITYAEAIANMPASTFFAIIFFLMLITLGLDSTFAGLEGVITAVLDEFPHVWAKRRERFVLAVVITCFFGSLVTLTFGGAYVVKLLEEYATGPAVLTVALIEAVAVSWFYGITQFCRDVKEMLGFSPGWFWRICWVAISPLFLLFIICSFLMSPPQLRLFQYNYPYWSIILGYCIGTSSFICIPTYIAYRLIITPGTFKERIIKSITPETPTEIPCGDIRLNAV

CC1CCCN(CC2(c3ccc(Cl)c(Cl)c3)CCCCC2)C1 (racemic) [Compound 114, 1-((1-(3,4-dichlorophenyl)cyclohexyl)methyl)-3-methylpiperidine]
IC50 ([1]; Human IC50 (nM) hSERT): > 10000 nM
IC50 [2, 3]: 16 nM

CNCC1(c2ccc(Cl)c(Cl)c2)CCC2(CC1)OCCO2 [Compound 270, 1-(8-(3,4-dichlorophenyl)-1,4-dioxaspiro[4.5]decan-8-yl)-N-methylmethanamine]
IC50 [1, 4]: 469 nM
IC50 [2, 3]: 376 nM

NCC1(c2ccc(Cl)c(Cl)c2)CCCC(F)(F)C1 (stereo not shown) [Compound 204, (1-(3,4-dichlorophenyl)-3,3-difluorocyclohexyl)-methanamine]
IC50 [1, 5]: 2250 nM
IC50 [2, 3]: 296 nM

CNCC1(c2ccc(F)c3ccccc23)CCCCC1 [Compound 69, 1-(1-(4-fluoronaphthalen-1-yl)cyclohexyl)-N-methylmethanamine]
IC50 [1, 4]: 930 nM
IC50 [2, 3]: 605 nM

CC(N(C)C)C1(c2cccc3ccccc23)CCCCC1 (single isomer, unassigned) [60 E1, N,N-dimethyl-1-(1-(naphthalen-1-yl)cyclohexyl)ethanamine]
IC50 [1, 4]: 184 nM
IC50 [2, 3]: 748 nM

CC(N(C)C)C1(c2ccc(OC(F)(F)F)cc2)CCCCC1 (single isomer, unassigned) [63 E2, N,N-dimethyl-1-(1-(4-(trifluoromethoxy)phenyl)cyclohexyl)ethanamine]
IC50 [1, 4]: 2 nM
IC50 [2, 3]: 1820 nM

NCC1(c2ccc(Cl)c(Cl)c2)CCC(Oc2ccccc2)CC1 (stereo not shown) [Compound 265, (1-(3,4-dichlorophenyl)-4-phenoxycyclohexyl)methanamine]
IC50 [1, 4]: 109 nM
IC50 [2, 3]: 1450 nM

CN(C)CC1(c2ccc3ccccc3c2)CCC(O)(CF)CC1 (stereo not shown) [Compound 246, 4-((dimethylamino)methyl)-1-(fluoromethyl)-4-(naphthalen-2-yl)cyclohexanol]
IC50 [1, 4]: 43 nM
IC50 [2, 3]: 282 nM

NCC1(c2ccc3ccccc3c2)CC=CCC1 (racemic) [Compound 291, (1-(naphthalen-2-yl)cyclohex-3-enyl)methanamine]
IC50 [1, 4]: 185 nM
IC50 [2, 3]: 72 nM

CN1Cc2c(ccc3c2OCO3)C2(CCC(C)(O)CC2)C1 (single isomer, unassigned) [Compound 295, 4',8-dimethyl-8,9-dihydro-7H-spiro [[1,3]dioxolo[4,5-h]isoquinoline-6,1'-cyclohexan]-4'-ol]
IC50 [1, 4]: > 10000 nM
IC50 [2, 3]: > 10000 nM

CN(C)CC1(c2ccc(Cl)cc2Cl)CCCCC1 [Compound 66, 1-(1-(2,4-dichlorophenyl)cyclohexyl)-N,N-dimethylmethanamine]
IC50 [1, 5]: 221 nM
IC50 [2, 3]: 355 nM

CCCC1(O)CCC(CN(C)C)(c2ccc(Cl)c(Cl)c2)CC1 (stereo not shown) [Compound 286, 4-(3,4-dichlorophenyl)-4-((dimethylamino)methyl)-1-propylcyclohexanol]
IC50 [1, 6]: 46 nM
IC50 [2, 3]: 198 nM

CNC(C)C1(c2ccc3ccccc3c2)CCC(C)(O)CC1 (single isomer, unassigned) [231 E1, 1-methyl-4-(1-(methylamino)ethyl)-4-(naphthalen-2-yl)cyclohexanol]
IC50 [1, 4]: 1280 nM
IC50 [2, 3]: 460 nM

NCC1(c2ccc3ccccc3c2)CCC(O)(CF)CC1 (stereo not shown) [Compound 218, 4-(aminomethyl)-1-(fluoromethyl)-4-(naphthalen-2-yl)cyclohexanol]
IC50 [1, 4]: 480 nM
IC50 [2, 3]: 5590 nM

CC(N(C)C)C1(c2ccc3ccccc3c2)CCC(C)(O)CC1 (single isomer, unassigned) [234 E2, 4-(1-(dimethylamino)ethyl)-1-methyl-4-(naphthalen-2-yl)cyclohexanol]
IC50 [1, 4]: 18 nM
IC50 [2, 3]: 21 nM

NCC1(c2ccc(F)cc2)CCCCC1 [Compound 91, (1-(4-fluorophenyl)cyclohexyl)methaneamine]
IC50 [1, 5]: > 10000 nM
IC50 [2, 3]: 1830 nM

NCC1(c2ccc(Cl)c(Cl)c2)CCCC1 [Compound 87, (1-(3,4-dichlorophenyl)cyclopentyl)methanamine]
IC50 [1, 5]: 1470 nM
IC50 [2, 3]: 139 nM

CC1CCCN1CC1(c2ccc(Cl)c(Cl)c2)CCCCC1 (racemic) [Compound 115, 1-((1-(3,4-dichlorophenyl)cyclohexyl)methyl)-2-methylpyrrolidine]
IC50 ([1]; Human IC50 (nM) hSERT): > 10000 nM
IC50 [2, 3]: < 1 nM

NCC1(c2ccc3ccccc3c2)CCC(F)CC1 (stereo not shown) [Compound 213, (4-fluoro-1-(naphthalen-2-yl)cyclohexyl)methanamine]
IC50 [1, 4]: 283 nM
IC50 [2, 3]: 337 nM

CNCC1(c2ccc(F)cc2)CCCCC1 [Compound 90, 1-(1-(4-fluorophenyl)cyclohexyl)-N-methylmethanamine]
IC50 [1, 5]: 839 nM
IC50 [2, 3]: 3360 nM

CNCC1(c2ccc3ccccc3c2)CCC(F)(F)CC1 [Compound 251, 1-(4,4-difluoro-1-(naphthalen-2-yl)cyclohexyl)-N-methylmethanamine]
IC50 [1, 4]: 199 nM
IC50 [2, 3]: 107 nM

CNCC1(c2ccc3c(c2)OCO3)CCC(C)(O)CC1 (stereo not shown) [Compound 239, 4-(benzo[d][1,3]dioxol-5-yl)-1-methyl-4-((methylamino)methyl)cyclohexanol]
IC50 [1, 4]: 8660 nM
IC50 [2, 3]: 9450 nM

CN(C)CC1(c2ccc3ccccc3c2)CCC(C)(O)CC1 (stereo not shown) [Compound 224, 4-((dimethylamino)methyl)-1-methyl-4-(naphthalen-2-yl)cyclohexanol]
IC50 [1, 4]: 69 nM
IC50 [2, 3]: 993 nM

NCC1(c2ccc(OC(F)(F)F)cc2)CCC(O)CC1 (stereo not shown) [Compound 220, 4-(aminomethyl)-4-(4-(trifluoromethoxy)phenyl)cyclohexanol]
IC50 [1, 4]: 6150 nM
IC50 [2, 3]: > 10000 nM

OC1CCCCC1NCC1(c2ccc(Cl)c(Cl)c2)CCCCC1 (racemic) [Compound 117, 2-((1-(3,4-dichlorophenyl)cyclohexyl)methylamino)cyclohexanol]
IC50 [1, 4]: 7900 nM
IC50 [2, 3]: 33 nM

CCC(N(C)C)C1(c2ccc(Cl)c(Cl)c2)CCCCC1 (single isomer, unassigned) [61 E2, 1-(1-(3,4-dichlorophenyl)cyclohexyl)-N,N-dimethylpropan-1-amine]
IC50 [1, 5]: 9440 nM
IC50 [2, 3]: 116 nM

COC1CCCC(CN)(c2ccc(Cl)c(Cl)c2)C1 (single isomer, unassigned) [195 E2]
IC50 [1, 4]: 45 nM
IC50 [2, 3]: 5320 nM

NCC1(c2ccc(Cl)c(F)c2)CCCCC1 [Compound 98, (1-(4-chloro-3-fluorophenyl)cyclohexyl)-methanamine]
IC50 [1, 5]: > 10000 nM
IC50 [2, 3]: 419 nM

Clc1ccc(C2(C3CCCN3)CCCCC2)cc1Cl (stereo not shown) [Compound 296, 2-(1-(3,4-dichlorophenyl)cyclohexyl)pyrrolidine]
IC50 [1, 4]: 73 nM
IC50 [2, 3]: 27 nM

CNC(C)C1(c2ccc(OC(F)(F)F)cc2)CCCCC1 (single isomer, unassigned) [64 E1, N-methyl-1-(1-(4-(trifluoromethoxy)phenyl)cyclohexyl)ethanamine]
IC50 [1, 4]: 58 nM
IC50 ([2]; Human IC50 (nM) hDAT): > 10000 nM

CC1(O)CCC(CN)(c2ccc3c(c2)OCO3)CC1 (stereo not shown) [Compound 215, 4-(aminomethyl)-4-(benzo[d][1,3]dioxol-5-yl)-1-methylcyclohexanol]
IC50 [1, 4]: 4190 nM
IC50 [2, 3]: 6240 nM

COC1CCCC(CN)(c2ccc(Cl)c(Cl)c2)C1 (single isomer, unassigned) [Compound 194]
IC50 [1, 4]: 330 nM
IC50 [2, 3]: 2370 nM

CN(C)CC1(c2ccc(F)c3ccccc23)CCCCC1 [Compound 70, 1-(1-(4-fluoronaphthalen-1-yl)cyclohexyl)-N,N-dimethylmethanamine]
IC50 [1, 4]: 29 nM
IC50 [2, 3]: 214 nM

CNCC1(c2ccc3ccccc3c2)CCC(O)(CF)CC1 (stereo not shown) [Compound 245, 1-(fluoromethyl)-4-((methylamino)methyl)-4-(naphthalen-2-yl)cyclohexanol]
IC50 [1, 4]: 538 nM
IC50 [2, 3]: 2270 nM

CSc1ccc(C2(CN)CCCCC2)cc1 [Compound 10, (1-(4-(methylthio)phenyl)cyclohexyl)methanamine]
IC50 [1, 5]: 1910 nM
IC50 [2, 3]: 2930 nM

CC(N)C1(c2ccc(-c3ccoc3)cc2)CCCCC1 (single isomer, unassigned) [20 E2, 1-(1-(4-(furan-3-yl)phenyl)cyclohexyl)ethanamine]
IC50 [1, 4]: 60 nM
IC50 [2, 3]: 437 nM

NCC1(c2ccc(Cl)c(Cl)c2)CCC(O)CC1 (stereo not shown) [Compound 262, 4-(aminomethyl)-4-(3,4-dichlorophenyl)cyclohexanol]
IC50 [1, 6]: > 10000 nM
IC50 [2, 3]: 4280 nM

CCC1(O)CCC(CN(C)C)(c2ccc(Cl)c(Cl)c2)CC1 (stereo not shown) [Compound 280, 4-(3,4-dichlorophenyl)-4-((dimethylamino)methyl)-1-ethylcyclohexanol]
IC50 [1, 4]: 7 nM
IC50 [2, 3]: 242 nM

CN(C)CC1(c2ccc3ccccc3c2)CCC(F)CC1 (stereo not shown) [Compound 233, 1-(4-fluoro-1-(naphthalen-2-yl)cyclohexyl)-N,N-dimethylmethanamine]
IC50 [1, 4]: 37 nM
IC50 [2, 3]: 3 nM

CNCC1(c2ccc3c(c2)OCO3)CCCCC1 [Compound 103, 1-(1-(benzo[d][1,3]dioxol-5-yl)cyclohexyl)-N-methylmethanamine]
IC50 [1, 5]: 3540 nM
IC50 [2, 3]: 7740 nM

CCC1(O)CCC(CN(C)C)(c2ccc(Cl)c(Cl)c2)CC1 (stereo not shown) [Compound 283, 4-(3,4-dichlorophenyl)-4-((dimethylamino)methyl)-1-ethylcyclohexanol]
IC50 [1, 4]: 20 nM
IC50 [2, 3]: 37 nM

CN(C)CC1(c2ccc3c(c2)OCO3)CCC(C)(O)CC1 (stereo not shown) [Compound 240, 4-(benzo[d][1,3]dioxol-5-yl)-4-((dimethylamino)methyl)-1-methylcyclohexanol]
IC50 [1, 4]: 1810 nM
IC50 [2, 3]: 9030 nM

CNC(C)C1(c2ccc(OC(F)(F)F)cc2)CCCCC1 (single isomer, unassigned) [64 E2, N-methyl-1-(1-(4-(trifluoromethoxy)phenyl)cyclohexyl)ethanamine]
IC50 [1, 4]: 32 nM
IC50 ([2]; Human IC50 (nM) hDAT): 3640 nM

c1ccc2cc(C3(C4CCCN4)CCCCC3)ccc2c1 (stereo not shown) [Compound 297, 2-(1-(naphthalen-2-yl)cyclohexyl)pyrrolidine]
IC50 [1, 4]: 40 nM
IC50 [2, 3]: 13 nM
